Prostate sparing, levator ani hypertrophy and Emax data for 14 compounds are collected here from US10196353B2, “Chemical compounds” (GlaxoSmithKline Intellectual Property (No. 2) Limited, priority 2012, dated 2019).

The subject of assay [1] is castrated male Sprague-Dawley rats. As to the kind of experiment: Castrated male rat model (ORX rat). Format: in vivo. Particulars: for prostate sparing: defined as at least a 2:1 ratio of levator ani ED50 to prostate ED50; for levator ani hypertrophy: favorable = 30% or greater increase in levator ani weight vs vehicle-treated castrates, dosed orally at up to 10 mg/kg/day. The source says: The activity of the compounds of the present invention as modulators of the androgen receptor was investigated using a castrated male rat model (ORX) as described in C. D. Kockakian, Pharmac. Therap. B1(2), 149-177 (1975); C. Tobin and Y. Joubert, Developmental Biology 146, 131-138 (1991); J. Antonio, J. D. Wilson and F. W. George, J Appl. Physiol. 87(6) 2016-2019 (1999)) the disclosures of which herein are included by reference.
Androgens have been identified as playing important roles in the maintenance and growth of many tissues in both animals and humans. Muscles, like the levator ani and bulbocavernosus, and sexual accessory organs, such as the prostate glands and seminal vesicles have high expression levels of the androgen receptor and are known to respond quickly to exogenous androgen addition or androgen deprivation through testicular ablation. Castration produces dramatic atrophy of muscle and sexual accessory organs; whereas the administration of exogenous androgens to the castrated animal results in effective hypertrophy of these muscles and sexual accessory organs. Although the levator ani muscle, also known as the dorsal bulbocavernosus, is not ‘true skeletal muscle’ and definitely sex-linked, it is reasonable to use this muscle to screen muscle anabolic activities of test compounds because of its androgen responsiveness and simplicity of removal.
Male Sprague-Dawley rats weighing 160-180 grams were used in the assay. The rats were singly caged upon receiving and throughout the study. Bilateral orchidectomies were performed in sterilized surgical conditions under isoflurane anesthesia. An anteroposterior incision was made in the scrotum. The testicles were exteriorized and the spermatic artery and vas deferens were ligated with 4.0 silk 0.5 cm proximal to the ligation site. The testicles then were removed by a surgical scissors distal to the ligation sites. The tissue stumps were returned to the scrotum, the scrotum and overlying skin were closed by a surgical stapler. The Sham-ORX rats underwent all procedures except ligation and scissors cutting. The rats were assigned randomly into study groups 7-10 days post surgery based on the body weight.
Dihydrotestosterone (DHT) and the standard SARM, S-22, (J. Pharma. Exper. Thera. Vol 315, p. 230) were used as a positive control (1-10 mg/kg s.c. for DHT and 0.1 to 3 mg/kg p.o. for S-22). Compounds of the current invention were administered subcutaneously or orally for 4-28 days. Alternatively, some compounds of the current invention were administered subcutaneously or orally for 7-49 days. The rats were weighed daily and doses were adjusted accordingly. The general well being of the animal was monitored throughout the course of the study.
At the end of the study, the rats were euthanized in a CO2 chamber. The ventral prostate glands (VP), seminal vesicles (SV), levator ani muscle (LA) and bulbocavernosus (BC) were carefully dissected. The tissues were blotted dry; the weights were recorded, and then saved for histological and molecular analysis. The VP and SV weights serve as androgenic indicators and LA and BC as anabolic indicators. The ratio of anabolic to androgenic activities was used to evaluate the test compounds. Serum luteinizing hormone (LH), follicle stimulating hormone (FSH) and other potential serum markers of anabolic activities were also analyzed.
The compounds shown in Examples 9, 20, 26, 27, 33, 51, 52, and 53 were tested in the castrated male rate model essentially as described above. Test compounds were employed in free or salt form. […] Prostate sparing was defined as at least a 2:1 ratio of levator ani ED50 to prostate ED50. The ED50 is defined as 50% of the maximum response above the vehicle treated castrate level. For shorter term studies (4-7 days), the maximum response is defined as the maximum response from positive control (DHT or standard SARM, S-22) treatment. For the longer term studies (7-49 days), the ED50 is defined as 50% of the eugonadal state. […]

Assay [2] concerns the target androgen receptor (MBP-hAR-LBD, rat androgen ligand binding domain) (Rattus norvegicus (Rat), UniProt P15207). As to the kind of experiment: Androgen receptor fluorescence polarization assay. Particulars: read-out: % Max. The text has this:
• The following abbreviations and sources of materials are used • Fluormone PL Red—a commercially available PR fluoroprobe (Invitrogen, P2964) • Fluormone GS Red—a commercially available GR fluoroprobe (PanVera Corp, Product No P2894) • Fluormone AL Red—a commercially available AR fluoroprobe (Invitrogen, PV4294,) • MBP-hPR-LBD—maltose binding protein Purified human progesterone ligand binding domain (made in house) • GR—purified human glucocorticoid receptor (PanVera Corp, Product No P2812) • MBP-hAR-LBD—maltose binding protein Purified rat androgen ligand binding domain (made in house) • PR Screening Buffer—100 mM potassium phosphate (pH 7.4), 100 μG/ml bovine gamma globulin, 15% ethylene glycol, 10% glycerol with 2 mM CHAPS, 1 mM DTT added fresh and 4% DMSO added fresh (final of 5% DMSO in assay with 1% concentration coming from compound dispense) • AR Screening Buffer—50 mM Tris pH 7.5, 100 mM Ammonium Sulfate, 20% glycerol, 3% xylitol with 5 mM Chaps, 2 mM DTT added fresh and 4% DMSO added fresh (final of 5% DMSO in assay with 1% concentration coming from compound dispense) • GR Screening Buffer—100 mM potassium phosphate (pH 7.4), 200 mM Na2MoO2, 1 mM EDTA, 20% DMSO (PanVera Corp Product No P2814) with GR stabilizing peptide (100 μM) (PanVera Corp Product No P2815) • DTT—dithiothreitol (PanVera Corp Product No P2325) • Discovery Analyst—is an FP reader • DMSO—dimethylsulphoxide Progesterone Receptor Fluorescence Polarization Assay:
The androgen receptor fluorescence polarization assay is used to investigate the interaction of the compounds with the androgen receptor.
Compounds are added to the 384 well black low-volume plates to a final volume of 0.1 μL. DTT and DMSO are added to the chilled assay buffer just before beginning assay. Sufficient Fluormone AL Red and AR-LBD are defrosted on ice and added to the chilled buffer in a glass tube to give a final concentration of 1 nM and 100 nM, (for current batch) respectively. A volume of 10 μL of the assay mix is added to compound plates with a multidrop. […] The plates are counted in a Discovery Analyst with suitable 535 nm excitation and 590 nm emission interference filters (Dichroic 561 nM). […] Test compounds are dissolved and diluted in DMSO. Compounds are assayed in singlicate, a four parameter curve fit of the following form being applied
[formula] where a is the minimum, b is the Hill slope, c is the IC50 and d is the maximum.
Data is presented as the mean pIC50 with the standard error of the mean of n experiments.

Molecules are shown by their SMILES.

androgen receptor (MBP-hAR-LBD, rat androgen ligand binding domain), sequence (P15207 651-882): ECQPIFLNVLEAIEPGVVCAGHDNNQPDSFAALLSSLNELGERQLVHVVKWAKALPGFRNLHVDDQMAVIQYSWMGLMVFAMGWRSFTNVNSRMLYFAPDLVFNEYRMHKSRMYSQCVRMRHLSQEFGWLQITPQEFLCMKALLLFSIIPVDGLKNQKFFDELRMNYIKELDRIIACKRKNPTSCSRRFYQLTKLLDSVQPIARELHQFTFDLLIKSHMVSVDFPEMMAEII

As to `CC(CS(C)(=O)=O)n1ccc2c(C(F)(F)F)c(C#N)ccc21` (stereo not shown) [Example 26, 1-(1-(Methylsulfonyl)propan-2-yl)-4-(trifluoromethyl)-1H-indole-5-carbonitrile], in assay [1], the prostate sparing entry is recorded as “spared the prostate” and the levator ani hypertrophy result was “favorable levator ani hypertrophy”.

`CSCC(C)n1c(C(F)F)cc2c(C#N)c(C#N)ccc21` (stereo not shown) [Example 17, 2-(Difluoromethyl)-1-(1-(methylthio)propan-2-yl)-1H-indole-4,5-dicarbonitrile]: in assay [2], the Emax turned out to be 99%.

On to `C[C@@H](n1ccc2c(C(F)(F)F)c(C#N)ccc21)C(C)(C)O` [Example 22, (R)-1-(3-Hydroxy-3-methylbutan-2-yl)-4-(trifluoromethyl)-1H-indole-5-carbonitrile], for which the Emax in assay [2] was 100%.

As for `C[C@H](n1ccc2c(C(F)(F)F)c(C#N)ccc21)C(C)(C)O` [Example 21, (S)-1-(3-Hydroxy-3-methylbutan-2-yl)-4-(trifluoromethyl)-1H-indole-5-carbonitrile], in assay [2], the Emax was found to be 100%.

`Cc1cc2c(C(F)(F)F)c(C#N)ccc2n1C(C)CS(C)(=O)=O` (stereo not shown) [Example 9, 2-Methyl-1-(1-(methylsulfonyl)propan-2-yl)-4-(trifluoromethyl)-1H-indole-5-carbonitrile]: in assay [1], the prostate sparing entry was “spared the prostate” and the levator ani hypertrophy result was “favorable levator ani hypertrophy”.

With `CCCc1cc2c(C(F)(F)F)c(C#N)ccc2n1CC(C)(C)O` [Example 12, 1-(2-Hydroxy-2-methylpropyl)-2-propyl-4-(trifluoromethyl)-1H-indole-5-carbonitrile], the Emax in assay [2] amounted to 90%.

`CCC(C(=O)OC)n1c(C)cc2c(C(F)(F)F)c(C#N)ccc21` (stereo not shown) [Example 2, Methyl 2-[5-cyano-2-methyl-4-(trifluoromethyl)-1H-indol-1-yl]butanoate]: the Emax in assay [2] came out at 72%.

On to `CC(C)(O)C(C)(C)n1ccc2c(C#N)c(C#N)ccc21` [Example 43, 1-(3-Hydroxy-2,3-dimethylbutan-2-yl)-1H-indole-4,5-dicarbonitrile], for which the Emax in assay [2] amounted to 105%.

Turning to `C[C@@H](n1ccc2c(Cl)c(C#N)ccc21)[C@](C)(O)C(F)(F)F` [Example 52, 4-Chloro-1-((2R,3S)-4,4,4-trifluoro-3-hydroxy-3-methylbutan-2-yl)-1H-indole-5-carbonitrile], the Emax in assay [2] is 97%. Further, in assay [1], the prostate sparing entry is “spared the prostate” and the levator ani hypertrophy result is “favorable levator ani hypertrophy”.

As for `C[C@H](n1ccc2c(Cl)c(C#N)ccc21)C(C)(C)O` [Example 32, (S)-4-Chloro-1-(3-hydroxy-3-methylbutan-2-yl)-1H-indole-5-carbonitrile], the Emax in assay [2] turned out to be 78%.

`CC[C@H](c1cncc(C#N)c1)n1ccc2c(C#N)c(C#N)ccc21` [Example 51, (R)-1-(1-(5-Cyanopyridin-3-yl)propyl)-1H-indole-4,5-dicarbonitrile]: in assay [1], the prostate sparing entry is “spared the prostate” and the levator ani hypertrophy entry was “favorable levator ani hypertrophy”.

For the compound `C[C@H](CS(C)(=O)=O)n1ccc2c(C(F)(F)F)c(C#N)ccc21` [Example 27, (R)-1-(1-(Methylsulfonyl)propan-2-yl)-4-(trifluoromethyl)-1H-indole-5-carbonitrile], the Emax in assay [2] was determined as 91%. In addition, in assay [1], the prostate sparing entry is listed as “spared the prostate” and the levator ani hypertrophy entry is recorded as “favorable levator ani hypertrophy”.

Regarding `C[C@@H](n1ccc2c(C(F)(F)F)c(C#N)ccc21)[C@](C)(O)C(F)(F)F` [Example 53, 1-((2R,3S)-4,4,4-Trifluoro-3-hydroxy-3-methylbutan-2-yl)-4-(trifluoromethyl)-1H-indole-5-carbonitrile], in assay [1], the prostate sparing result is given as “spared the prostate” and the levator ani hypertrophy result is on record as “favorable levator ani hypertrophy”.

On to `Cc1cc2c(C(F)(F)F)c(C#N)ccc2n1C(C)CO` (stereo not shown) [Example 7, 1-(1-Hydroxypropan-2-yl)-2-methyl-4-(trifluoromethyl)-1H-indole-5-carbonitrile], for which the Emax in assay [2] amounted to 100%.
